From PubChem BioAssay (NCI)
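Exposure lasted 48 hours, with cells grown in 96-well plates and compounds tested at five concentrations. At the GI50, growth is halved. TGI is the concentration that stops growth completely.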

What was measured:
Assay in all cases: NCI-60 cell line screen, 48 h
[1] = tested on: HOP-62 NSCLC
[2] = tested on: HCC-2998 colon
[3] = tested on: SK-MEL-28 melanoma
[4] = tested on: U251 CNS
[5] = tested on: COLO 205 colon
[6] = tested on: HCT-116 colon
[7] = tested on: SN12C renal
[8] = tested on: IGROV1 ovarian
[9] = tested on: HS 578T breast
[10] = tested on: OVCAR-5 ovarian
[11] = tested on: A498 renal
[12] = tested on: SF-295 CNS
[13] = tested on: RPMI-8226 leukemia
[14] = tested on: NCI-H23 lung
[15] = tested on: NCI-H226 lung
[16] = tested on: OVCAR-8 ovarian
[17] = tested on: SF-539 CNS
[18] = tested on: MDA-MB-468 breast
[19] = tested on: OVCAR-3 ovarian
[20] = tested on: RXF 393 renal
[21] = tested on: LOX IMVI melanoma
[22] = tested on: EKVX NSCLC
[23] = tested on: KM12 colon
[24] = tested on: UACC-257 melanoma
[25] = tested on: HT29 colon
[26] = tested on: HCT-15 colon
[27] = tested on: DU-145 prostate
[28] = tested on: T-47D breast
[29] = tested on: ACHN renal
[30] = tested on: K-562 leukemia
[31] = tested on: MALME-3M melanoma
[32] = tested on: TK-10 renal
[33] = tested on: SK-MEL-2 melanoma
[34] = tested on: SF-268 CNS
[35] = tested on: A549 NSCLC
[36] = tested on: MCF7 breast
[37] = tested on: SW-620 colon
[38] = tested on: SK-OV-3 ovarian
[39] = tested on: SK-MEL-5 melanoma
[40] = tested on: UACC-62 melanoma
[41] = tested on: CAKI-1 renal
[42] = tested on: MDA-MB-435
[43] = tested on: BT-549 breast
[44] = tested on: M14 melanoma
[45] = tested on: NCI-H460 lung
[46] = tested on: OVCAR-4 ovarian
[47] = tested on: CCRF-CEM leukemia
[48] = tested on: HOP-92 NSCLC
[49] = tested on: SNB-19 CNS
[50] = tested on: NCI-H522 lung
[51] = tested on: SNB-75 CNS
[52] = tested on: MOLT-4 leukemia
[53] = tested on: PC-3 prostate
[54] = tested on: 786-0 renal
[55] = tested on: HL-60(TB) leukemia
[56] = tested on: NCI/ADR-RES ovarian

COC(=O)C(Cc1ccc(O)c(O)c1)NC(=O)C(CSC/C=C(\C)CCCC(C)CCCC(C)CCCC(C)C)NC(C)=O (configuration not stated)
GI50 [1]: 13.6 µM | TGI [1]: 44.4 µM | GI50 [2]: 18 µM | TGI [2]: > 100 µM | GI50 [3]: 49.5 µM | TGI [3]: > 100 µM | GI50 [4]: 2.84 µM | TGI [4]: 11.2 µM | GI50 [5]: 15.5 µM | TGI [5]: > 100 µM | GI50 [6]: 1.33 µM | TGI [6]: 2.81 µM | GI50 [7]: 30.9 µM | TGI [7]: > 100 µM | GI50 [8]: 10.7 µM | TGI [8]: > 100 µM | GI50 [9]: 27.7 µM | TGI [9]: > 100 µM | GI50 [10]: 29.5 µM | TGI [10]: > 100 µM | GI50 [11]: 30.3 µM | TGI [11]: > 100 µM | GI50 [12]: 18.3 µM | TGI [12]: 43.8 µM | GI50 [13]: 4.06 µM | TGI [13]: > 100 µM | GI50 [14]: 20 µM | TGI [14]: 64.2 µM | GI50 [15]: 16.2 µM | TGI [15]: > 100 µM | GI50 [16]: 7.95 µM | TGI [16]: 32.7 µM | GI50 [17]: 9.48 µM | TGI [17]: 26.1 µM | GI50 [18]: 16.9 µM | TGI [18]: > 100 µM | GI50 [19]: 5.79 µM | TGI [19]: > 100 µM | GI50 [20]: 16.1 µM | TGI [20]: 44.5 µM | GI50 [21]: 10.5 µM | TGI [21]: > 100 µM | GI50 [22]: 30.3 µM | TGI [22]: > 100 µM | GI50 [23]: 9.05 µM | TGI [23]: > 100 µM | GI50 [24]: 69.2 µM | TGI [24]: > 100 µM | GI50 [25]: 9.19 µM | TGI [25]: > 100 µM | GI50 [26]: 4.45 µM | TGI [26]: > 100 µM | GI50 [27]: > 100 µM | TGI [27]: > 100 µM | GI50 [28]: 7.78 µM | TGI [28]: 45.3 µM | GI50 [29]: 16.5 µM | TGI [29]: 42.7 µM | GI50 [30]: 8.06 µM | TGI [30]: > 100 µM | GI50 [31]: 49.1 µM | TGI [31]: > 100 µM | GI50 [32]: 22.3 µM | TGI [32]: 93.8 µM | GI50 [33]: 25.1 µM | TGI [33]: 90 µM | GI50 [34]: 26.7 µM | TGI [34]: > 100 µM | GI50 [35]: 11.2 µM | TGI [35]: > 100 µM | GI50 [36]: 13.5 µM | TGI [36]: > 100 µM | GI50 [37]: 11.4 µM | TGI [37]: > 100 µM | GI50 [38]: 17.5 µM | TGI [38]: 43.2 µM | GI50 [39]: 28 µM | TGI [39]: > 100 µM | GI50 [40]: 17.1 µM | TGI [40]: 74.8 µM | GI50 [41]: 31 µM | TGI [41]: > 100 µM | GI50 [42]: 41.5 µM | TGI [42]: > 100 µM | GI50 [43]: 1.36 µM | TGI [43]: 3 µM | GI50 [44]: 2.78 µM | TGI [44]: 12.5 µM | GI50 [45]: 4.27 µM | TGI [45]: > 100 µM | GI50 [46]: 25.6 µM | TGI [46]: > 100 µM | GI50 [47]: 3.84 µM | TGI [47]: > 100 µM | GI50 [48]: 11.9 µM | TGI [48]: 30.1 µM | GI50 [49]: 3.81 µM | TGI [49]: 48.4 µM | GI50 [50]: 1.82 µM | TGI [50]: 3.6 µM | GI50 [51]: 39.3 µM | TGI [51]: > 100 µM | GI50 [52]: 3.34 µM | TGI [52]: > 100 µM | GI50 [53]: 3 µM | TGI [53]: 14.2 µM | GI50 [54]: 1.29 µM | TGI [54]: 2.76 µM | GI50 [55]: 6.67 µM | TGI [55]: 41.5 µM | GI50 [56]: 33.3 µM | TGI [56]: > 100 µM
